# Values of other authors in patent publication US20220213156A1, “Peptides for use in therapy or prophylaxis of Herpesviridae-infections” (priority 2019, published 2022).
# “And” between values parts separate entries of the source, which are not always exact repeats. Identical values can stand only once.
# System: multidrug resistant CMV isolate (H815-2006)
# Details: isolate H815-2006 with UL97 L595S and UL54 V715M; cited from earlier work
smiles,measurement,value
"Nc1nc(O)c2ncn(COC(CO)CO)c2n1 [GCV, Ganciclovir]",IC50,> 30 µM and 31.5 µM
